Reference: US9469617B2, “Molecules having certain pesticidal utilities, and intermediates, compositions, and processes related thereto” (priority 2014, dated 2016)

Columns and labels:
Type in all cases: in vivo
[1] = system: Beet Armyworm (BAW) (Spodoptera exigua); experiment: Bioassay on Beet Armyworm (BAW), 128-well diet tray assay; conditions: 168 h, Table ABC, 50 μg/cm^2 on artificial diet, second instar larvae, five to seven days, 25° C., read-out: BAW % Control (or Mortality) rating
Experimental: (§1) Certain molecules disclosed in this document were tested against BAW and CL using procedures described in the following examples. In the reporting of the results, the “BAW & CL Rating Table” was used (See Table Section).
Bioassays on BAW were conducted using a 128-well diet tray assay. one to five second instar BAW larvae were placed in each well (3 mL) of the diet tray that had been previously filled with 1 mL of artificial diet to which 50 μg/cm^2 of the test compound (dissolved in 50 μL of 90:10 acetone-water mixture) had been applied (to each of eight wells) and then allowed to dry. Trays were covered with a clear self-adhesive cover, and held at 25° C., 14:10 light-dark for five to seven days. Percent mortality was recorded for the larvae in each well; activity in the eight wells was then averaged. The results are indicated in the tables entitled “Table ABC: Assay Results” and “Table ABCD: Assay Results” (See Table Section).

[2] = system: Cabbage Looper (CL) (Trichoplusia ni); experiment: Bioassay on Cabbage Looper (CL), 128-well diet tray assay; conditions: 168 h, Table ABC, 50 μg/cm^2 on artificial diet, second instar larvae, five to seven days, 25° C., read-out: CL % Control (or Mortality) rating
Experimental: as §1
Bioassays on CL were conducted using a 128-well diet tray assay. One to five second instar CL larvae were placed in each well (3 mL) of the diet tray that had been previously filled with 1 mL of artificial diet to which 50 μg/cm^2 of the test compound (dissolved in 50 μL of 90:10 acetone-water mixture) had been applied (to each of eight wells) and then allowed to dry. Trays were covered with a clear self-adhesive cover, and held at 25° C., 14:10 light-dark for five to seven days. Percent mortality was recorded for the larvae in each well; activity in the eight wells was then averaged. The results are indicated in the table entitled “Table ABC: Assay Results” and “Table ABCD: Assay Results” (See Table Section).

[3] = system: Yellow Fever Mosquito (YFM) (Aedes aegypti); experiment: Bioassay on Yellow Fever Mosquito (YFM) larvae, 96-well plate; conditions: Table ABC; about 1 day-old larvae, master plate 4000 ppm in DMSO diluted, scored on mortality after 3 days
Experimental: Certain molecules disclosed in this document were tested against YFM using procedures described in the following paragraph. In the reporting of the results, the “GPA & YFM Rating Table” was used (See Table Section).
Master plates containing 400 μg of a molecule dissolved in 100 μL of dimethyl sulfoxide (DMSO) (equivalent to a 4000 ppm solution) are used. A master plate of assembled molecules contains 15 μL per well. To this plate, 135 μL of a 90:10 water:acetone mixture is added to each well. A robot (Biomek® NXP Laboratory Automation Workstation) is programmed to dispense 15 μL aspirations from the master plate into an empty 96-well shallow plate (“daughter” plate). There are 6 reps (“daughter” plates) created per master. The created daughter plates are then immediately infested with YFM larvae.
The day before plates are to be treated, mosquito eggs are placed in Millipore water containing liver powder to begin hatching (4 g. into 400 mL). After the daughter plates are created using the robot, they are infested with 220 μL of the liver powder/larval mosquito mixture (about 1 day-old larvae). After plates are infested with mosquito larvae, a non-evaporative lid is used to cover the plate to reduce drying. Plates are held at room temperature for 3 days prior to grading. After 3 days, each well is observed and scored based on mortality.

Row | SMILES | mortality at 50 µg/cm2 [1] [%] | mortality at 50 µg/cm2 [2] [%] | YFM % Control (or Mortality) rating [3]
1 | Cc1ccc(C(C)C)c(-n2c(C)cs/c2=N\C(=O)NC2Cc3ccc(-c4ncn(-c5ccc(OC(F)(F)F)cc5)n4)cc3C2)c1 (stereo not drawn) [P12, (Z)-1-(3-(2-Isopropyl-5-methylphenyl)-4-methylthiazol-2(3H)-ylidene)-3-(5-(1-(4-(trifluoromethoxy)phenyl)-1H-1,2,4-triazol-3-yl)-2,3-dihydro-1H-inden-2-yl)urea] | 50 to 100 | 50 to 100 | A (80-100)
2 | Cc1ccc(C(C)C)c(N2C(=O)C(C)S/C2=N\C(=O)NC2Cc3ccc(-c4ncn(-c5ccc(OC(F)(F)F)cc5)n4)cc3C2)c1 (stereo not drawn) [P13, (Z)-1-(3-(2-Isopropyl-5-methylphenyl)-5-methyl-4-oxothiazolidin-2-ylidene)-3-(5-(1-(4-(trifluoromethoxy)phenyl)-1H-1,2,4-triazol-3-yl)-2,3-dihydro-1H-inden-2-yl)urea] | 50 to 100 | 50 to 100 | B (More than 0-Less than 80)
3 | Cc1ccc(C(C)C)c(N2CC(C)CS/C2=N\C(=O)NC2Cc3ccc(-c4ncn(-c5ccc(OC(F)(F)F)cc5)n4)cc3C2)c1 (stereo not drawn) [P18, (Z)-1-(3-(2-isopropyl-5-methylphenyl)-5-methyl-1,3-thiazinan-2-ylidene)-3-(5-(1-(4-(trifluoromethoxy)phenyl)-1H-1,2,4-triazol-3-yl)-2,3-dihydro-1H-inden-2-yl)urea] | 50 to 100 | 50 to 100 | A (80-100)
4 | CC(C)c1ccccc1N1CCCS/C1=N\C(=O)NC1Cc2ccc(-c3ncn(-c4ccc(OC(F)(F)F)cc4)n3)cc2C1 (stereo not drawn) [P19, (Z)-1-(3-(2-Isopropylphenyl)-1,3-thiazinan-2-ylidene)-3-(5-(1-(4-(trifluoromethoxy)phenyl)-1H-1,2,4-triazol-3-yl)-2,3-dihydro-1H-inden-2-yl)urea] | 50 to 100 | 50 to 100 | A (80-100)
5 | Cc1ccc(C(C)C)c(N2CCCS/C2=N\C(=O)NC2Cc3ccc(-c4ncn(-c5ccc(OC(F)(F)F)cc5)n4)cc3C2)c1 (stereo not drawn) [P20, (Z)-1-(3-(2-Isopropyl-5-methylphenyl)-1,3-thiazinan-2-ylidene)-3-(5-(1-(4-(trifluoromethoxy)phenyl)-1H-1,2,4-triazol-3-yl)-2,3-dihydro-1H-inden-2-yl)urea] | 50 to 100 | 50 to 100 | A (80-100)
6 | Cc1ccc(C(C)C)c(NC(=S)NC(=O)NC2CCc3cc(-c4ncn(-c5ccc(OC(F)(F)F)cc5)n4)ccc3C2)c1 (stereo not drawn) [P21, 1-[(2-Isopropyl-5-methyl-phenyl)carbamothioyl]-3-[6-[1-[4-(trifluoromethoxy)phenyl]-1,2,4-triazol-3-yl]tetralin-2-yl]urea] | 50 to 100 | 50 to 100 | A (80-100)
7 | CC(C)c1ccccc1NC(=S)NC(=O)NC1CCc2cc(-c3ncn(-c4ccc(OC(F)(F)F)cc4)n3)ccc2C1 (stereo not drawn) [P22, 1-[(2-Isopropylphenyl)carbamothioyl]-3-[6-[1-[4-(trifluoromethoxy)phenyl]-1,2,4-triazol-3-yl]tetralin-2-yl]urea] | 50 to 100 | 50 to 100 | A (80-100)
8 | CC(C)c1ccccc1N1C(=O)CS/C1=N\C(=O)NC1CCc2cc(-c3ncn(-c4ccc(OC(F)(F)F)cc4)n3)ccc2C1 (stereo not drawn) [P24, (Z)-1-(3-(2-Isopropylphenyl)-4-oxothiazolidin-2-ylidene)-3-(6-(1-(4-(trifluoromethoxy)phenyl)-1H-1,2,4-triazol-3-yl)-1,2,3,4-tetrahydronaphthalen-2-yl)urea] | 50 to 100 | 50 to 100 | A (80-100)
9 | Cc1ccc(C)c(NC(=S)NC(=O)NC2CCc3cc(-c4ncn(-c5ccc(OC(F)(F)F)cc5)n4)ccc3C2)c1 (stereo not drawn) [P25, 1-[(2,5-Dimethylphenyl)carbamothioyl]-3-[6-[1-[4-(trifluoromethoxy)phenyl]-1,2,4-triazol-3-yl]tetralin-2-yl]urea] | 50 to 100 | 50 to 100 | A (80-100)
10 | CC(C)c1ccc(Cl)cc1NC(=S)NC(=O)NC1CCc2cc(-c3ncn(-c4ccc(OC(F)(F)F)cc4)n3)ccc2C1 (stereo not drawn) [P26, 1-[(5-Chloro-2-isopropyl-phenyl)carbamothioyl]-3-[6-[1-[4-(trifluoromethoxy)phenyl]-1,2,4-triazol-3-yl]tetralin-2-yl]urea] | 50 to 100 | 50 to 100 | A (80-100)
11 | CCCc1ccc(C)cc1NC(=S)NC(=O)NC1CCc2cc(-c3ncn(-c4ccc(OC(F)(F)F)cc4)n3)ccc2C1 (stereo not drawn) [P27, 1-[(5-Methyl-2-propyl-phenyl)carbamothioyl]-3-[6-[1-[4-(trifluoromethoxy)phenyl]-1,2,4-triazol-3-yl]tetralin-2-yl]urea] | 50 to 100 | 50 to 100 | A (80-100)
12 | COc1ccc(NC(=S)NC(=O)NC2CCc3cc(-c4ncn(-c5ccc(OC(F)(F)F)cc5)n4)ccc3C2)c(C)c1 (stereo not drawn) [P28, 1-[(4-Methoxy-2-methyl-phenyl)carbamothioyl]-3-[6-[1-[4-(trifluoromethoxy)phenyl]-1,2,4-triazol-3-yl]tetralin-2-yl]urea] | 50 to 100 | 50 to 100 | A (80-100)
13 | CCc1cccc(C)c1NC(=S)NC(=O)NC1CCc2cc(-c3ncn(-c4ccc(OC(F)(F)F)cc4)n3)ccc2C1 (stereo not drawn) [P29, 1-[(2-Ethyl-6-methyl-phenyl)carbamothioyl]-3-[6-[1-[4-(trifluoromethoxy)phenyl]-1,2,4-triazol-3-yl]tetralin-2-yl]urea] | 50 to 100 | 50 to 100 | A (80-100)
14 | Cc1ccc(Cl)c(NC(=S)NC(=O)NC2CCc3cc(-c4ncn(-c5ccc(OC(F)(F)F)cc5)n4)ccc3C2)c1 (stereo not drawn) [P30, 1-[(2-Chloro-5-methyl-phenyl)carbamothioyl]-3-[6-[1-[4-(trifluoromethoxy)phenyl]-1,2,4-triazol-3-yl]tetralin-2-yl]urea] | 50 to 100 | 50 to 100 | A (80-100)
15 | COc1ccc(C)cc1NC(=S)NC(=O)NC1CCc2cc(-c3ncn(-c4ccc(OC(F)(F)F)cc4)n3)ccc2C1 (stereo not drawn) [P31, 1-[(2-Methoxy-5-methyl-phenyl)carbamothioyl]-3-[6-[1-[4-(trifluoromethoxy)phenyl]-1,2,4-triazol-3-yl]tetralin-2-yl]urea] | 50 to 100 | 50 to 100 | A (80-100)
16 | Cc1ccc(C)c(N2C(=O)CS/C2=N\C(=O)NC2CCc3cc(-c4ncn(-c5ccc(OC(F)(F)F)cc5)n4)ccc3C2)c1 (stereo not drawn) [P32, (Z)-1-(3-(2,5-Dimethylphenyl)-4-oxothiazolidin-2-ylidene)-3-(6-(1-(4-(trifluoromethoxy)phenyl)-1H-1,2,4-triazol-3-yl)-1,2,3,4-tetrahydronaphthalen-2-yl)urea] | 50 to 100 | 50 to 100 | B (More than 0-Less than 80)
